# Reference: the supplement of paper PMC10307832
# Legend:
# Assay in all cases: relative viability (nuclei count vs DMSO), 5 days (fraction); higher = more cells survive
# [1] = compound: CC(C)C[C@H](NC(=O)[C@H](Cc1ccccc1)NC(=O)c1cnccn1)B(O)O [Bortezomib] + C[C@]1(O)C[C@@H](c2nc(-c3ccc4ccc(-c5ccccc5)nc4c3)c3c(N)nccn32)C1 [Linsitinib] (partner 1 µM)
# Method in brief: (§1)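 Cells from lung cancer lines were seeded into 1536-well plates and, one day later, dosed by pin tool. Treatments were either a single drug or a fixed dose of an anchor drug with five library-drug doses (not always all listed) in √10 steps. After 5 days, nuclei were stained in a one-step fixation (final 0.05% Triton X-100, 1% formaldehyde, 1 ug/ml Hoechst) and counted on 4× images, and relative viability is the treated-to-vehicle nuclei ratio, as the median of duplicate plates.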
# [2] = compound: CC1=CC(=NN1)NC2=CC(=NC(=N2)/C=C/C3=CC=CC=C3)N4CCN(CC4)C + CS(=O)(=O)N1CCN(Cc2cc3nc(-c4cccc5[nH]ncc45)nc(N4CCOCC4)c3s2)CC1 [Pictilisib] (partner 1 µM)
# Method in brief: as §1
# [3] = compound: COC1=CC(c2cc3ccccc3[nH]2)=N/C1=C\c1[nH]c(C)cc1C [Obatoclax] + CC1(C)CCC(c2ccc(Cl)cc2)=C(CN2CCN(c3ccc(C(=O)NS(=O)(=O)c4ccc(N[C@H](CCN5CCOCC5)CSc5ccccc5)c(S(=O)(=O)C(F)(F)F)c4)cc3)CC2)C1 [Navitoclax] (partner 0.5 µM)
# Method in brief: as §1
# [4] = compound: COC1=CC(c2cc3ccccc3[nH]2)=N/C1=C\c1[nH]c(C)cc1C [Obatoclax] + C[C@]1(O)C[C@@H](c2nc(-c3ccc4ccc(-c5ccccc5)nc4c3)c3c(N)nccn32)C1 [Linsitinib] (partner 1 µM)
# Method in brief: as §1
Cell Line,relative viability ([1]; first compound 0.0002 µM),relative viability ([1]; first compound 0.000632 µM),relative viability ([1]; first compound 0.002 µM),relative viability ([1]; first compound 0.006325 µM),relative viability ([1]; first compound 0.02 µM),relative viability ([2]; first compound 0.08 µM),relative viability ([2]; first compound 0.253 µM),relative viability ([2]; first compound 0.8 µM),relative viability ([2]; first compound 2.53 µM),relative viability ([2]; first compound 8 µM),relative viability ([3]; first compound 0.01 µM),relative viability ([3]; first compound 0.03162 µM),relative viability ([3]; first compound 0.1 µM),relative viability ([3]; first compound 0.3162 µM),relative viability ([3]; first compound 1 µM),relative viability ([4]; first compound 0.01 µM),relative viability ([4]; first compound 0.03162 µM),relative viability ([4]; first compound 0.1 µM),relative viability ([4]; first compound 0.3162 µM),relative viability ([4]; first compound 1 µM)
201T,1.04,1.1,0.921,1.08,0.4,0.668,0.683,0.67,0.643,0.607,1.23,1.2,1.18,1.21,1.31,1.04,1.01,1.02,1.06,1.03
A549,0.667,0.538,0.423,0.122,0.0542,0.464,0.592,0.332,0.0385,0.0281,1.2,1.29,1.16,0.682,0.0677,0.601,0.55,0.621,0.635,0.626
A-427,1.06,1.03,1.1,1.16,0.285,0.836,0.247,0.741,0.401,0.11,0.864,0.917,0.95,0.986,0.959,1.07,0.775,1.11,1.15,1.13
ABC-1,0.806,0.688,0.308,0.257,0.234,0.764,0.76,0.792,0.284,0.173,–,–,–,–,–,0.619,0.768,0.815,0.928,0.372
BEN,0.814,0.927,0.763,0.592,0.173,0.622,0.578,0.598,0.411,0.193,0.0996,0.0601,0.052,0.0537,0.078,0.948,0.828,0.913,0.948,0.796
CAL-12T,0.898,0.852,0.742,0.662,0.165,0.335,0.426,0.48,0.187,0.147,1.06,1.03,1.24,0.926,0.103,0.646,0.773,0.919,0.809,0.526
COR-L23,0.994,0.828,0.495,0.0469,0.0499,0.73,0.929,0.765,0.177,0.0607,1.08,1.06,0.883,0.257,0.2,0.848,1,0.767,0.29,0.173
COR-L 105,0.848,0.99,0.711,0.293,0.282,0.461,0.429,0.353,0.205,0.223,0.815,0.649,0.792,0.741,0.388,0.989,0.964,0.998,1.06,0.401
Calu-6,0.938,0.775,0.961,0.214,0.0654,0.876,0.807,0.648,0.131,0.103,0.874,0.977,0.852,0.506,0.0891,0.95,0.898,0.946,0.852,0.652
ChaGo-K-1,–,–,–,–,–,0.605,0.912,1,0.292,0.271,0.956,0.669,–,0.955,1.32,–,–,–,–,–
EBC-1,0.902,0.801,0.516,0.0706,0.0667,0.394,0.451,0.392,0.143,0.0897,0.449,0.379,0.395,0.16,0.177,0.771,0.879,0.922,0.87,0.65
EKVX,1.01,0.936,0.915,0.609,0.0808,0.438,0.478,0.488,0.31,0.115,0.86,0.618,0.98,0.924,0.922,0.978,0.923,1.07,0.907,0.876
EMC-BAC-2,0.828,0.805,0.786,0.46,0.132,0.507,0.589,0.468,0.325,0.154,1.15,1.18,1.13,1.19,1.22,0.796,0.817,0.827,0.797,0.875
EPLC-272H,–,–,1.26,1.29,0.109,0.286,0.286,0.31,0.0769,0.152,1.1,1.16,1.38,1.03,1.26,1.13,1.22,1.15,1.03,1.2
H3255,0.914,1.02,0.705,0.263,0.19,0.507,0.534,0.497,0.396,0.205,0.517,0.544,0.681,0.537,0.438,0.893,0.976,0.985,0.884,0.892
HARA,0.899,0.836,0.895,0.0675,0.0867,0.396,0.37,0.348,0.204,0.0756,1.09,1.11,1.15,0.871,1.11,0.923,0.316,1.03,0.703,0.919
